In patent US20140249196A1, “N-BENZYLBENZIMIDAZOLE MODULATORS OF PPARG” (priority 2011, published 2014):

How the values were obtained:
GST-PPARG-LBD = biological target: T1, GST-PPARG-LBD (Homo sapiens, UniProt P37231); assay: Lanthascreen PPARG competitive binding assay (Invitrogen); details: Table 3; for IC50: read-out: IC50 (nM) Lantha
T1 construct: A mixture of 5 nM GST-PPARG-LBD; purchased Invitrogen
T1 sequence (P37231 238-503 limits assumed): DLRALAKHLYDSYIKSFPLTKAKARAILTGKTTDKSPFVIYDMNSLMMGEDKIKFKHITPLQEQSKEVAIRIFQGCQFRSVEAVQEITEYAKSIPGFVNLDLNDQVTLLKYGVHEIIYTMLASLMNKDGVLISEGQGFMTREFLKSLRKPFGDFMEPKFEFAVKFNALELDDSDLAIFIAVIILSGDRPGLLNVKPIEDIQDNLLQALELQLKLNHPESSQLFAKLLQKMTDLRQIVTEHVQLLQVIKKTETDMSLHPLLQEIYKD
Description: Lanthascreen PPARG Competitive Binding Assay (Invitrogen)
The assay was performed according to manufacturer protocol. A mixture of 5 nM GST-PPARG-LBD, 5 nM Tb-GST-antibody, 5 nM Fluormone Pan-PPAR Green, and serial dilutions of the experimental compound, beginning at 10 μM downwards, was added to wells of black 384-well low-volume plates (Greiner) to a total volume of 18 μL. All dilutions were made in TR-FRET assay buffer C. DMSO at 2% final concentration was used as a no-ligand control. Experiment was performed in triplicate, and incubated for 2 hours in the dark prior to assay read in Perkin Elmer ViewLux ultra HTS microplate reader. FRET signal was measured by excitation at 340 nm and emission at 520 nm for fluorescein and 490 nm for terbium. Fold change over DMSO was calculated using GraphPad Prism Software (La Jolla, Calif.) by calculating 520 nm/490 nm ratio. Graphs were plotted as fold change of FRET signal for compound treatment over DMSO-only control.

PPARG [1] = biological target: T2, PPARG (Homo sapiens, UniProt P37231); assay: Gal4 transactivation assay; type: cell-based; details: Table 3
T2 construct: own inference from the column head
T2 sequence (P37231 1-505): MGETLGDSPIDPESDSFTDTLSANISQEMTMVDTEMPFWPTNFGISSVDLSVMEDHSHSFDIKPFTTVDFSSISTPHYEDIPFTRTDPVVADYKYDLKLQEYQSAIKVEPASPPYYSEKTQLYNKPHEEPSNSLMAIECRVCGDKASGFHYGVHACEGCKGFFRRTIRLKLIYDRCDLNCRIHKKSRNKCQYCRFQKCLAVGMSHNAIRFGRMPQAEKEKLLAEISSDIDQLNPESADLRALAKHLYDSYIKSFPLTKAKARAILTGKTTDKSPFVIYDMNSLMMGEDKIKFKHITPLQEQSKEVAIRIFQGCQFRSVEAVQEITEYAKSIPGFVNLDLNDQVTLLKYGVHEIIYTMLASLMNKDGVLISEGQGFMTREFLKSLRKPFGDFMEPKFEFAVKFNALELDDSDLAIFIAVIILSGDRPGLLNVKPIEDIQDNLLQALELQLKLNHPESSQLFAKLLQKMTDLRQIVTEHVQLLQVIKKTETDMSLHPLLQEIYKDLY

PPARG [2] = assay: Cell-based transactivation assay (3xPPRE-luciferase reporter, COS-1 cells co-transfected with PPARG); design: species or system murine or human (not said which for the values)
Description: Cell-Based Transactivation Assay: PPRE is a DNA that contains a binding site for PPARG; thus PPRE is a PPAR response element, used herein as a promoter reporter. The binding site is a DR1 response element with the sequence [NT] repeated 3 times in tandem and then fused to a construct for luciferase. Thus, PPRE is the basis of the cell based transactivation assay described below. The plasmid DNA is co-transfected along with a plasmid for PPARG into COS-1 cells. After an overnight incubation, cells are treated with DMSO or compounds. […] Transfected cells were plated in white Perkin Elmer 384-well plates and incubated 4 hours. […] After 18 hour incubation, treated cells were developed with Brite Lite Plus (Perkin Elmer) and read in 384-well Luminescence Perkin Elmer EnVision Multilabel plate reader. Graphs were plotted in triplicate in GraphPad Prism Software as fold change of treated cells over DMSO control cells.

Structure (SMILES) | IC50 (GST-PPARG-LBD) [nM] | also measured
CC(C)c1cccc([C@H](C)NC(=O)c2ccc3c(c2)ncn3[C@@H](C)c2ccc(Cl)cc2)c1 [Cpd 15] | 2520 | –
CC(C)c1cccc([C@H](C)NC(=O)c2ccc3c(c2)ncn3Cc2ccc(Cl)cc2)c1 [Cpd 17] | 4400 | –
O=C(NCC1CC1)c1ccc2c(c1)ncn2Cc1ccc(Cl)cc1 [Cpd 20] | 18300 | –
Cc1nc2cc(C(=O)N[C@@H](C)c3cccc(Br)c3)ccc2n1Cc1cccc(O[C@H](C)C(=O)O)c1 [Cpd 21] | – | IC50 (nM) Lantha (GST-PPARG-LBD): 1e+08 nM
COCCCNC(=O)c1ccc2c(c1)ncn2Cc1ccc(Cl)cc1 [Cpd 22] | 7330 | –
CCOCCNC(=O)c1ccc2c(c1)ncn2Cc1ccc(Cl)cc1 [Cpd 23] | 3710 | –
COCCNC(=O)c1ccc2c(c1)ncn2Cc1ccc(Cl)cc1 [Cpd 24] | 6360 | –
COC[C@H](C)NC(=O)c1ccc2c(c1)ncn2Cc1ccc(Cl)cc1 [Cpd 25] | 5220 | –
O=C(NCC[C@H]1CCO1)c1ccc2c(c1)ncn2Cc1ccc(Cl)cc1 [Cpd 26] | 6770 | –
O=C(NCC1CCC1)c1ccc2c(c1)ncn2Cc1ccc(Cl)cc1 [Cpd 29] | 7950 | –
Cc1nc2cc(C(=O)N[C@@H](C)c3cccc(C(C)C)c3)ccc2n1Cc1cccc(O[C@@H](C)C(=O)O)c1 [Cpd 33] | 2420 | –
CCCc1nc2cc(C(=O)N[C@@H](C)c3cccc(C(C)C)c3)ccc2n1Cc1cccc(O[C@@H](C)C(=O)O)c1 [Cpd 35] | 2410 | –
COCCOCc1ccc2c(c1)ncn2Cc1ccc(Cl)cc1 [Cpd 36] | 13700 | –
CC(C)[C@@H](CO)NC(=O)c1ccc2c(c1)ncn2Cc1ccc(Cl)cc1 [Cpd 40] | 3250 | –
CC(C)c1cccc([C@H](C)NC(=O)c2ccc3c(c2)ncn3[C@H](C)c2ccc(Cl)cc2)c1 [Cpd 41] | 11000 | –
C[C@@H](CO)NC(=O)c1ccc2c(c1)ncn2Cc1ccc(Cl)cc1 [Cpd 46] | 24400 | –
CC(C)CC(C)NC(=O)c1ccc2c(c1)ncn2[C@H](C)c1ccc(Cl)cc1 (stereo partly drawn) [Cpd 47] | 8400 | –
COc1ccc(C(=O)n2c(C)c(Cc3cccc(O[C@@H](C)C(=O)O)c3)c3cc(OC(F)(F)F)ccc32)cc1 [MRL24] | – | transactivation of the reporter, % of rosiglitazone response (PPARG [2]; relative to rosiglitazone): about 25%
CN(CCOc1ccc(CC2SC(=O)NC2=O)cc1)c1ccccn1 (stereo not drawn) [rosiglitazone] | – | activation of the PPRE reporter (PPARG [2]; over DMSO): about 5 fold

Second part, led by results:

IC50 (GST-PPARG-LBD) [nM] | Structure (SMILES) | also measured
2380 | C[C@H](NC(=O)c1ccc2c(c1)ncn2Cc1ccc(Cl)cc1)c1ccc(Br)cc1 [Cpd 16] | –
2100 | C[C@@H](CC1CCOCC1)NC(=O)c1ccc2c(c1)ncn2Cc1ccc(Cl)cc1 [Cpd 19] | –
1420 | CCCCNC(=O)c1ccc2c(c1)ncn2Cc1ccc(Cl)cc1 [Cpd 28] | –
42.3 | CC(C)CCC(C)NC(=O)c1ccc2c(c1)ncn2Cc1ccc(Cl)cc1 (stereo not drawn) [Cpd 30] | EC50 (PPARG [1]): 636 nM; GL4 % act 1 μM (PPARG [1]): 96.37%; GL4 % act 10 μM (PPARG [1]): 109.37%
31.8 | CC(C)CC(C)NC(=O)c1ccc2c(c1)ncn2Cc1ccc(Cl)cc1 (stereo not drawn) [Cpd 31] | EC50 (PPARG [1]): 12200 nM; GL4 % act 1 μM (PPARG [1]): 34.29%; GL4 % act 10 μM (PPARG [1]): 68.66%
2030 | CCc1nc2cc(C(=O)N[C@@H](C)c3cccc(C(C)C)c3)ccc2n1Cc1cccc(O[C@@H](C)C(=O)O)c1 [Cpd 32] | –
1090 | CC(C)CCNC(=O)c1ccc2c(c1)ncn2Cc1ccc(Cl)cc1 [Cpd 34] | –
2160 | COC(=O)[C@H](C)NC(=O)c1ccc2c(c1)ncn2Cc1ccc(Cl)cc1 [Cpd 38] | –
612 | COC[C@@H](NC(=O)c1ccc2c(c1)ncn2Cc1ccc(Cl)cc1)C(C)C [Cpd 39] | EC50 (PPARG [1]): 442 nM; GL4 % act 1 μM (PPARG [1]): 62.18%
921 | O=C(N[C@H](CO)c1ccccc1)c1ccc2c(c1)ncn2Cc1ccc(Cl)cc1 [Cpd 42] | –
237 | COC(=O)[C@@H](NC(=O)c1ccc2c(c1)ncn2Cc1ccc(Cl)cc1)c1ccccc1 [Cpd 43] | EC50 (PPARG [1]): 752 nM; GL4 % act 1 μM (PPARG [1]): 51.21%
1260 | CC(C)CCC(C)NC(=O)c1ccc2c(c1)ncn2[C@H](C)c1ccc(Cl)cc1 (stereo partly drawn) [Cpd 48] | –
2050 | CC(C)c1cccc([C@H](C)NC(=O)c2ccc3c(c2)ncn3Cc2ccc(Cl)nc2)c1 [Cpd 49] | –
162 | CC(C)c1cccc([C@@H](C)NC(=O)c2ccc3c(c2)ncn3Cc2ccc(Cl)cc2)c1 [Cpd 50] | EC50 (PPARG [1]): 44.1 nM; GL4 % act 1 μM (PPARG [1]): 54.52%
1050 | CC[C@@H](NC(=O)c1ccc2c(c1)ncn2Cc1ccc(Cl)cc1)c1ccccc1 [Cpd 51] | EC50 (PPARG [1]): 3910 nM; GL4 % act 1 μM (PPARG [1]): 76.12%
403 | CC[C@H](NC(=O)c1ccc2c(c1)ncn2Cc1ccc(Cl)cc1)c1ccccc1 [Cpd 52] | EC50 (PPARG [1]): 99.3 nM; GL4 % act 1 μM (PPARG [1]): 30.41%
